In US7935687B2, “Methods for treating spinal muscular atrophy using tetracycline compounds” (Paratek Pharmaceuticals, Inc., priority 2007, dated 2011):
Where two headings read alike, the source gives them in different places.

Key:
E. coli (EC D1-209) = assay: Antibacterial MIC, gram negative; type: cell-based
S. aureus (SA RN450) = assay: Antibacterial MIC, gram positive; type: cell-based
SMN2 mRNA = assay: In vitro cell-free splicing assay for inclusion of exon 7; type: biochemical
Experimental: The following example illustrates how tetracycline compound of the invention are active in an in vitro cell-free assay for the inclusion of exon 7 in […] mRNA. SMN1 and SMN2 pre-mRNA were prepared by in vitro transcription using T7 RNA polymerase of minigene templates that include exon 6, a truncated portion of intron 6, exon 7, intron 7 and a portion of exon 8 in the presence of ^32P-UTP. Labeled RNA was purified on a denaturing polyacrylamide gel followed by phenol extraction and ethanol precipitation of the RNA.
In vitro cell-free splicing of SMN1 and SMN2 transcripts was carried out in a 10 μl reaction volume at 30° C. for 3 hours. The reactions contained 10 fmol of labeled pre-mRNA, 30% (3 VI) HeLa cell nuclear extract (in 20 mM HEPES, pH 7.4, 20% (v/v) glycerol, 0.1M KC1, 0.2 mM EDTA), 1.3% (w/v) polyvinyl alcohol, 1.56 mM MgCl2, 32 mM HEPES, pH 7.4, 0.5 mM ATP, 20 mM creatine phosphate and either 2 μl of test compound (in 20 mM HEPES, pH 7.4, 0.1M KC1, 0.2 mM EDTA) or buffer alone. Following incubation, 200 μl of a solution containing 0.3M NaAc and 0.2% SDS was added to the reaction. Proteins were removed by extraction with an equal volume of phenol and RNA was precipitated with 2.5 volumes of ethanol. RNA was resuspended in formamide sample buffer and separated on a 9% urea-denaturing polyacrylamide gel. Quantitation of splicing was based on phosphorimage analysis (Fujix BAS2000 or Fujifilm FLA-5100). In this assay, percentage exon 7 inclusion averages 12% for the unmutated SMN1 mRNA and 4% for the SMN2 mRNA.
The in vitro activities for exon 7 splicing are expressed as the Emax (the maximum percentage exon 7 inclusion observed) and Cmax (the lowest compound concentration at which the maximum inclusion occurs in μM). For Emax, percentage inclusion values of less than 10% are indicated by “*”, values of 10-20% are indicated by “**”, and values greater than 20% are indicated by “***”. For Cmax data, concentrations of greater than 40 μM are indicated by “*”, concentrations between 40 and 10 μM are represented by “**” and concentrations of less than 10 μM are represented by “***”.

[1] = CLSI methodology, 35° C., 18-24 hours
[2] = HeLa cell nuclear extract, 30° C., 3 hours

SMILES	MIC Gram Negative (EC D1-209) (E. coli (EC D1-209); [1])	MIC Gram Positive (SA RN450) (S. aureus (SA RN450); [1])	also measured
CN(C)CCCNC(=O)c1ccc(-c2ccc(O)c3c2CC2CC4C(N(C)C)C(O)=C(C(N)=O)C(=O)C4(O)C(O)=C2C3=O)cc1 (stereo not drawn) [AA]	* (weak antibacterial activity (greater than about 8 μg/mL))	** (modest antibacterial activity (between about 4 and 8 μg/mL))	–
CN(C)C1C(O)=C(C(N)=O)C(=O)C2(O)C(O)=C3C(=O)c4c(O)ccc(C(=O)Cn5ccnc5)c4CC3CC12 (stereo not drawn) [CF]	* (weak antibacterial activity (greater than about 8 μg/mL))	** (modest antibacterial activity (between about 4 and 8 μg/mL))	–
CN(C)CCCNCc1cccc(-c2ccc(O)c3c2CC2CC4C(N(C)C)C(O)=C(C(N)=O)C(=O)C4(O)C(O)=C2C3=O)c1 (stereo not drawn) [CX]	–	–	Cmax (lowest compound concentration at which the maximum exon 7 inclusion occurs) (SMN2 mRNA): *** (key: *: concentrations of greater than 40 μM; **: concentrations between 40 and 10 μM; ***: concentrations of less than 10 μM); Emax (maximum percentage exon 7 inclusion observed) (SMN2 mRNA): ** (key: *: percentage inclusion values of less than 10%; **: values of 10-20%; ***: values greater than 20%)
CN(C)C1C(O)=C(C(N)=O)C(=O)C2(O)C(O)=C3C(=O)c4c(O)ccc(-c5cccc(C(=O)NCCN6CCOCC6)c5)c4CC3CC12 (stereo not drawn) [CP]	–	–	Cmax (lowest compound concentration at which the maximum exon 7 inclusion occurs) (SMN2 mRNA; [2]): ** (concentrations between 40 and 10 μM); Emax (maximum percentage exon 7 inclusion observed) (SMN2 mRNA; [2]): *** (values greater than 20%)
COC(C)CNCC(=O)c1ccc(O)c2c1CC1CC3C(N(C)C)C(O)=C(C(N)=O)C(=O)C3(O)C(O)=C1C2=O (stereo not drawn) [CA]	* (weak antibacterial activity (greater than about 8 μg/mL))	*** (Good antibacterial activity (e.g., less than about 4 μg/mL))	–
CN(C)C1C(O)=C(C(N)=O)C(=O)C2(O)C(O)=C3C(=O)c4c(O)ccc(C(=O)CNCC(N)=O)c4CC3CC12 (stereo not drawn) [BZ]	–	–	MIC Gram Negative (EC D1-209) (E. coli (EC D1-209)): * (key: ***: Good antibacterial activity (e.g., less than about 4 μg/mL); **: modest antibacterial activity (between about 4 and 8 μg/mL); *: weak antibacterial activity (greater than about 8 μg/mL)); MIC Gram Positive (SA RN450) (S. aureus (SA RN450)): ** (key: ***: Good antibacterial activity (e.g., less than about 4 μg/mL); **: modest antibacterial activity (between about 4 and 8 μg/mL); *: weak antibacterial activity (greater than about 8 μg/mL))
CN(C)CCNC(=O)c1cccc(-c2cc(N(C)C)c3c(c2O)C(=O)C2=C(O)[C@]4(O)C(=O)C(C(N)=O)=C(O)[C@@H](N(C)C)[C@@H]4C[C@@H]2C3)c1 [Compound V, (4S,4aS,5aR,12aS)-4,7-Bis-dimethylamino-9-[3-(2-dimethylamino-ethylcarbamoyl)-phenyl]-3,10,12,12a-tetrahydroxy-1,11-dioxo-1,4,4a,5,5a,6,11,12a-octahydro-naphthacene-2-carboxylic Acid Amide]	–	–	MIC (E. coli (EC D1-209); Escherichia coli, CLSI methodology, 35° C., 18-24 hours): > 8 µg/mL; MIC (S. aureus (SA RN450); Staphylococcus aureus, CLSI methodology, 35° C., 18-24 hours): > 8 µg/mL
CC(=O)c1cccc(-c2ccc(O)c3c2CC2CC4C(N(C)C)C(O)=C(C(N)=O)C(=O)C4(O)C(O)=C2C3=O)c1 (stereo not drawn) [AS]	* (weak antibacterial activity (greater than about 8 μg/mL))	*** (Good antibacterial activity (e.g., less than about 4 μg/mL))	–
CN(C)C1C(O)=C(C(N)=O)C(=O)C2(O)C(O)=C3C(=O)c4c(O)ccc(C(=O)CNCC(C)(C)C)c4CC3CC12 (stereo not drawn) [BP]	* (weak antibacterial activity (greater than about 8 μg/mL))	*** (Good antibacterial activity (e.g., less than about 4 μg/mL))	–
CN(C)C1C(O)=C(C(N)=O)C(=O)C2(O)C(O)=C3C(=O)c4c(O)ccc(C(=O)CN5CCN(C6CCCCC6)CC5)c4CC3CC12 (stereo not drawn) [BU]	*** (Good antibacterial activity (e.g., less than about 4 μg/mL))	*** (Good antibacterial activity (e.g., less than about 4 μg/mL))	–
CC(=O)Nc1cccc(-c2ccc(O)c3c2CC2CC4C(N(C)C)C(O)=C(C(N)=O)C(=O)C4(O)C(O)=C2C3=O)c1 (stereo not drawn) [AO]	* (weak antibacterial activity (greater than about 8 μg/mL))	*** (Good antibacterial activity (e.g., less than about 4 μg/mL))	–
CN(C)C1C(O)=C(C(N)=O)C(=O)C2(O)C(O)=C3C(=O)c4c(O)ccc(C(=O)CNCC(F)(F)F)c4CC3CC12 (stereo not drawn) [BT]	* (weak antibacterial activity (greater than about 8 μg/mL))	*** (Good antibacterial activity (e.g., less than about 4 μg/mL))	–
COC(=O)c1ccc(-c2ccc(O)c3c2CC2CC4C(N(C)C)C(O)=C(C(N)=O)C(=O)C4(O)C(O)=C2C3=O)cc1 (stereo not drawn) [AR]	* (weak antibacterial activity (greater than about 8 μg/mL))	*** (Good antibacterial activity (e.g., less than about 4 μg/mL))	–
CN(C)CCCN(C)Cc1cccc(-c2ccc(O)c3c2C[C@H]2C[C@H]4[C@H](N(C)C)C(O)=C(C(N)=O)C(=O)[C@@]4(O)C(O)=C2C3=O)c1 [Compound CU, (4S,4aS,5aR,12aS)-4-Dimethylamino-7-(3-{[(3-dimethylamino-propyl)-methyl-amino]-methyl}-phenyl)-3,10,12,12a-tetrahydroxy-1,11-dioxo-1,4,4a,5,5a,6,11,12a-octahydro-naphthacene-2-carboxylic Acid Amide]	–	–	Cmax (lowest compound concentration at which the maximum exon 7 inclusion occurs) (SMN2 mRNA; [2]): *** (concentrations of less than 10 μM); Emax (maximum percentage exon 7 inclusion observed) (SMN2 mRNA; [2]): ** (values of 10-20%)
CC(C)OC(=O)c1cccc(-c2ccc(O)c3c2CC2CC4C(N(C)C)C(O)=C(C(N)=O)C(=O)C4(O)C(O)=C2C3=O)c1 (stereo not drawn) [AU]	* (weak antibacterial activity (greater than about 8 μg/mL))	*** (Good antibacterial activity (e.g., less than about 4 μg/mL))	–
CN(C)CCNCc1cccc(-c2ccc(O)c3c2CC2CC4C(N(C)C)C(O)=C(C(N)=O)C(=O)C4(O)C(O)=C2C3=O)c1 (stereo not drawn) [CS]	–	–	Cmax (lowest compound concentration at which the maximum exon 7 inclusion occurs) (SMN2 mRNA): *** (key: *: concentrations of greater than 40 μM; **: concentrations between 40 and 10 μM; ***: concentrations of less than 10 μM); Emax (maximum percentage exon 7 inclusion observed) (SMN2 mRNA): ** (key: *: percentage inclusion values of less than 10%; **: values of 10-20%; ***: values greater than 20%)
CCOC(=O)N1CCN(CC(=O)c2ccc(O)c3c2CC2CC4C(N(C)C)C(O)=C(C(N)=O)C(=O)C4(O)C(O)=C2C3=O)CC1 (stereo not drawn) [BR]	* (weak antibacterial activity (greater than about 8 μg/mL))	*** (Good antibacterial activity (e.g., less than about 4 μg/mL))	–
CN(C)c1cc(-c2ccc(CN3CCN(CCO)CC3)o2)c(O)c2c1C[C@H]1C[C@H]3[C@H](N(C)C)C(O)=C(C(N)=O)C(=O)[C@@]3(O)C(O)=C1C2=O [BA]	* (weak antibacterial activity (greater than about 8 μg/mL))	*** (Good antibacterial activity (e.g., less than about 4 μg/mL))	–
CN(C)CCCCN(C)Cc1cccc(-c2ccc(O)c3c2CC2CC4C(N(C)C)C(O)=C(C(N)=O)C(=O)C4(O)C(O)=C2C3=O)c1 (stereo not drawn) [CW]	–	–	Cmax (lowest compound concentration at which the maximum exon 7 inclusion occurs) (SMN2 mRNA; [2]): *** (concentrations of less than 10 μM); Emax (maximum percentage exon 7 inclusion observed) (SMN2 mRNA; [2]): ** (values of 10-20%)
CN(C)CCCCNCc1cccc(-c2ccc(O)c3c2CC2CC4C(N(C)C)C(O)=C(C(N)=O)C(=O)C4(O)C(O)=C2C3=O)c1 (stereo not drawn) [CV]	–	–	Cmax (lowest compound concentration at which the maximum exon 7 inclusion occurs) (SMN2 mRNA; [2]): *** (concentrations of less than 10 μM); Emax (maximum percentage exon 7 inclusion observed) (SMN2 mRNA; [2]): ** (values of 10-20%)
CN(C)C1C(O)=C(C(N)=O)C(=O)C2(O)C(O)=C3C(=O)c4c(O)ccc(-c5cccc(C=CC#N)c5)c4CC3CC12 (stereo not drawn) [CO]	–	–	Cmax (lowest compound concentration at which the maximum exon 7 inclusion occurs) (SMN2 mRNA; [2]): ** (concentrations between 40 and 10 μM); Emax (maximum percentage exon 7 inclusion observed) (SMN2 mRNA; [2]): ** (values of 10-20%)
COCCCNC(=O)c1cccc(-c2ccc(O)c3c2CC2CC4C(N(C)C)C(O)=C(C(N)=O)C(=O)C4(O)C(O)=C2C3=O)c1 (stereo not drawn) [CQ]	–	–	Cmax (lowest compound concentration at which the maximum exon 7 inclusion occurs) (SMN2 mRNA; [2]): * (concentrations of greater than 40 μM); Emax (maximum percentage exon 7 inclusion observed) (SMN2 mRNA; [2]): ** (values of 10-20%)
CN(C)C1C(O)=C(C(N)=O)C(=O)C2(O)C(O)=C3C(=O)c4c(O)ccc(-c5cccc(C(=O)NCCN6CCCC6)c5)c4CC3CC12 (stereo not drawn) [CR]	–	–	Cmax (lowest compound concentration at which the maximum exon 7 inclusion occurs) (SMN2 mRNA): ** (key: *: concentrations of greater than 40 μM; **: concentrations between 40 and 10 μM; ***: concentrations of less than 10 μM); Emax (maximum percentage exon 7 inclusion observed) (SMN2 mRNA): *** (key: *: percentage inclusion values of less than 10%; **: values of 10-20%; ***: values greater than 20%)
CN(C)CCN(C)Cc1cccc(-c2ccc(O)c3c2CC2CC4C(N(C)C)C(O)=C(C(N)=O)C(=O)C4(O)C(O)=C2C3=O)c1 (stereo not drawn) [CT]	–	–	Cmax (lowest compound concentration at which the maximum exon 7 inclusion occurs) (SMN2 mRNA): ** (concentrations between 40 and 10 μM); Emax (maximum percentage exon 7 inclusion observed) (SMN2 mRNA): ** (values of 10-20%)
